Converted amounts (≈) assume the structure as drawn. Where two headings read alike, the source gives them in different places. Where a SMILES comes first, the peptide text is derived from it. The star is where a group is joined. Deoxycholoyl = C[C@H](CCC(=O)*)[C@H]1CC[C@H]2[C@@H]3CC[C@@H]4C[C@H](O)CC[C@]4(C)[C@H]3C[C@H](O)[C@]12C; Octanoyl = CCCCCCCC(=O)*; X4 = O=C(/C=C/c1ccccc1)*; X3 = CCCCC(CC)C(=O)*
How the values were obtained:
[1] = test system: Enterococcus faecium ATCC 700221; type: cell-based; details: ATCC 700221, 18 h
Description: (§1) Tests of the antibacterial activity were carried out as we just described. Briefly, for assays, the following strains of ESKAPE bacteria were chosen: Acinetobacter baumannii ATCC BAA-1605, Enterococcus faecium ATCC 700221, Klebsiella aerogenes ATCC 13048 (formerly Enterobacter aerogenes), Klebsiella pneumoniae ATCC 700603, and Pseudomonas aeruginosa ATCC 9027. Moreover, the reference strains of Staphylococcus aureus were used: S. aureus ATCC 25923, S. aureus ATCC 6538, S. aureus ATCC 33591 (MRSA), S. aureus ATCC 9144, and S. aureus ATCC 12598. Before experiments, all the strains were stored at −80 °C in Roti®-Store cryo vials (Carl Roth GmbH, Karlsruhe, Germany). To evaluate the activity of the compounds, bacteria were transferred into fresh Mueller–Hinton medium (Becton Dickinson, Warszawa, Poland) and incubated for 24 h at 37 °C. In the next step, bacterial inoculums were seeded on Mueller–Hinton agar plates (BioMaxima SA, Lublin, Poland) and incubated again for 24 h. The MIC values were determined using the broth microdilution method according to the Clinical and Laboratory Standards Institute Protocol. The initial inoculums of bacteria (0.5 × 10^5 colony forming units (CFU)/mL) prepared in Mueller–Hinton broth were exposed to the ranging concentrations of peptides (1–512 µg/mL). The experiments were conducted on 96-well microtiter plates, with a final volume of 100 µL. The inoculum densities were checked spectrophotometrically (Multiskan™ GO Microplate Spectrophotometer, Thermo Scientific, Waltham, MA, USA) at 600 nm. The results were read after incubation for 18 h at 37 °C. The MIC values were the lowest concentration at which a visible growth of microorganisms was inhibited. All experiments were conducted in triplicate. Moreover, positive (growth) and negative (sterility) controls were included.

[2] = test system: Klebsiella aerogenes ATCC 13048; type: cell-based; details: ATCC 13048, 18 h
Description: as §1

[3] = test system: Klebsiella pneumoniae ATCC 700603; type: cell-based; details: ATCC 700603, 18 h
Description: as §1

[4] = test system: Pseudomonas aeruginosa ATCC 9027; type: cell-based; details: ATCC 9027, 18 h
Description: as §1

[5] = test system: S. aureus ATCC 12598; type: cell-based, Staphylococcus aureus; details: ATCC 12598, 18 h
Description: as §1

[6] = test system: S. aureus ATCC 25923; type: cell-based, Staphylococcus aureus; details: ATCC 25923, 18 h
Description: as §1

[7] = test system: S. aureus ATCC 33591 (MRSA); type: cell-based, Staphylococcus aureus; details: ATCC 33591, 18 h
Description: as §1

[8] = test system: S. aureus ATCC 6538; type: cell-based, Staphylococcus aureus; details: ATCC 6538, 18 h
Description: as §1

[9] = test system: S. aureus ATCC 9144; type: cell-based, Staphylococcus aureus; details: ATCC 9144, 18 h
Description: as §1

[10] = test system: human red blood cells (hRBCs); test: Hemolysis assay; details: 4% (v/v) erythrocytes in PBS, peptides 1–512 µg/mL, 1 h at 37 °C, hemoglobin at 540 nm
Description: To facilitate a comparison of hemolytic activity between the analogs, MHC5 values were determined. MHC5 is the minimum hemolytic concentration of the compounds that caused the 5% hemolysis of hRBCs.
Briefly, the fresh hRBCs with EDTA as anticoagulant were rinsed three times with PBS through centrifugation at 800× g for 10 min and resuspended in PBS. The serial dilution of peptides (1–512 µg/mL) was prepared in PBS on 96-well plates. Then, the stock RBCs solution was added to the plates to reach a final volume of 100 µL with a 4% concentration of erythrocytes (v/v). The control wells for 0 (RBCs in PBS) and 100% (RBCs in 1% Triton-X 100) hemolysis were also prepared. Then, the plates were incubated for 1 h at 37 °C and centrifuged at 800× g for 10 min at 4 °C (Sorvall ST 16R Centrifuge, Thermo Scientific, Waltham, MA, USA). After centrifugation, the supernatant was carefully transferred to new microtiter plates and the release of hemoglobin was measured at 540 nm (Multiskan™ GO Microplate Spectrophotometer, Thermo Scientific, Waltham, MA, USA). The percentage of hemolysis was calculated based on wells with 100% hemolysis.

[11] = fresh batch of blood (footnote a)

| Compound | MIC E. faecium [1] [µg/mL] | MIC K. aerogenes [2] [µg/mL] | MIC K. pneumoniae [3] [µg/mL] | MIC P. aeruginosa [4] [µg/mL] | MIC S. aureus 12598 [5] [µg/mL] | MIC S. aureus 25923 [6] [µg/mL] | MIC S. aureus 33591 [7] [µg/mL] | MIC S. aureus 6538 [8] [µg/mL] | MIC S. aureus 9144 [9] [µg/mL] | MIC A. baumannii (18 h) [µg/mL] | MHC5 (minimum hemolytic concentration causing 5% hemolysis of hRBCs) [10, 11] | MIC A. baumannii (Mueller–Hinton broth, 0.5 × 10^5 CFU/mL, peptides 1–512 µg/mL, 18 h at 37 °C, triplicate) [µg/mL] | MHC5 (minimum hemolytic concentration causing 5% hemolysis of hRBCs) ([10]; 100% = 1% Triton-X 100, ≥ means less than 5% hemolysis up to 512 µg/mL) [µg/mL] |
| --- | --- | --- | --- | --- | --- | --- | --- | --- | --- | --- | --- | --- | --- |
| CC[C@H](C)[C@H](NC(=O)[C@H](CCCNC(=N)N)NC(=O)[C@H](CCC(N)=O)NC(=O)[C@@H](NC(=O)[C@@H](NC(=O)[C@H](CCCNC(=N)N)NC(=O)[C@H](CCCCN)NC(=O)/C=C/c1ccccc1)[C@@H](C)CC)C(C)C)C(=O)N[C@@H](CCCCN)C(=O)N[C@@H](CC(=O)O)C(=O)N[C@@H](Cc1ccccc1)C(=O)N[C@@H](CC(C)C)C(=O)N[C@@H](CCCNC(=N)N)C(N)=O [XIX, trans-cinnamic acid-KR12-NH2] (X4-KRIVQRIKDFLR-NH2) | 4 (≈ 2.35 µM) | 16 (≈ 9.41 µM) | 16 (≈ 9.41 µM) | 32 (≈ 18.8 µM) | 16 (≈ 9.41 µM) | 16 (≈ 9.41 µM) | 8 (≈ 4.7 µM) | 16 (≈ 9.41 µM) | 4 (≈ 2.35 µM) | 8 (≈ 4.7 µM) | 128 ^a µg/mL |  |  |
| CCCCC(CC)C(=O)N[C@@H](CCCCN)C(=O)N[C@@H](CCCNC(=N)N)C(=O)N[C@H](C(=O)N[C@H](C(=O)N[C@@H](CCC(N)=O)C(=O)N[C@@H](CCCNC(=N)N)C(=O)N[C@H](C(=O)N[C@@H](CCCCN)C(=O)N[C@@H](CC(=O)O)C(=O)N[C@@H](Cc1ccccc1)C(=O)N[C@@H](CC(C)C)C(=O)N[C@@H](CCCNC(=N)N)C(N)=O)[C@@H](C)CC)C(C)C)[C@@H](C)CC (some centres unmarked) [XIV, 2-Ethylhexanoic acid-KR12-NH2] (X3-KRIVQRIKDFLR-NH2) | 4 (≈ 2.36 µM) | 16 (≈ 9.43 µM) | 16 (≈ 9.43 µM) | 128 (≈ 75.4 µM) | 32 (≈ 18.9 µM) | 64 (≈ 37.7 µM) | 16 (≈ 9.43 µM) | 16 (≈ 9.43 µM) | 32 (≈ 18.9 µM) | 16 (≈ 9.43 µM) | 256 ^a µg/mL |  |  |
| CC[C@H](C)[C@H](NC(=O)[C@H](CCCNC(=N)N)NC(=O)[C@H](CCC(N)=O)NC(=O)[C@@H](NC(=O)[C@@H](NC(=O)[C@H](CCCNC(=N)N)NC(=O)[C@H](CCCCN)NC(=O)CC[C@@H](C)[C@H]1CC[C@H]2[C@@H]3CC[C@@H]4C[C@H](O)CC[C@]4(C)[C@H]3C[C@H](O)[C@]12C)[C@@H](C)CC)C(C)C)C(=O)N[C@@H](CCCCN)C(=O)N[C@@H](CC(=O)O)C(=O)N[C@@H](Cc1ccccc1)C(=O)N[C@@H](CC(C)C)C(=O)N[C@@H](CCCNC(=N)N)C(N)=O [XXII, Deoxycholic acid-KR12-NH2] (Deoxycholoyl-KRIVQRIKDFLR-NH2) | 2 (≈ 1.03 µM) | 128 (≈ 65.8 µM) | 64 (≈ 32.9 µM) | 128 (≈ 65.8 µM) | 8 (≈ 4.11 µM) | 32 (≈ 16.4 µM) | 256 (≈ 132 µM) | 4 (≈ 2.06 µM) | 8 (≈ 4.11 µM) |  | 8 µg/mL | 8 (≈ 4.11 µM) |  |
| CCCCCCCC(=O)NCCCC[C@H](NC(=O)CCCCCCC)C(=O)N[C@@H](CCCNC(=N)N)C(=O)N[C@H](C(=O)N[C@H](C(=O)N[C@@H](CCC(N)=O)C(=O)N[C@@H](CCCNC(=N)N)C(=O)N[C@H](C(=O)N[C@@H](CCCCN)C(=O)N[C@@H](CC(=O)O)C(=O)N[C@@H](Cc1ccccc1)C(=O)N[C@@H](CC(C)C)C(=O)N[C@@H](CCCNC(=N)N)C(N)=O)[C@@H](C)CC)C(C)C)[C@@H](C)CC [IX, C8^α,C8^ε-KR12-NH2] (Octanoyl-K(Octanoyl)RIVQRIKDFLR-NH2) | 16 (≈ 8.78 µM) | 512 (≈ 281 µM) | >512 | >512 | 256 (≈ 140 µM) | 512 (≈ 281 µM) | 256 (≈ 140 µM) |  | 256 (≈ 140 µM) | 512 (≈ 281 µM) |  |  |  |

Second part, led by results:

| MIC E. faecium [1] [µg/mL] | MIC K. aerogenes [2] [µg/mL] | MIC K. pneumoniae [3] [µg/mL] | MIC P. aeruginosa [4] [µg/mL] | MIC S. aureus 12598 [5] [µg/mL] | MIC S. aureus 25923 [6] [µg/mL] | MIC S. aureus 33591 [7] [µg/mL] | MIC S. aureus 6538 [8] [µg/mL] | MIC S. aureus 9144 [9] [µg/mL] | MIC A. baumannii (18 h) [µg/mL] | Compound | MHC5 (minimum hemolytic concentration causing 5% hemolysis of hRBCs) [10, 11] | MIC A. baumannii (Mueller–Hinton broth, 0.5 × 10^5 CFU/mL, peptides 1–512 µg/mL, 18 h at 37 °C, triplicate) [µg/mL] | MHC5 (minimum hemolytic concentration causing 5% hemolysis of hRBCs) ([10]; 100% = 1% Triton-X 100, ≥ means less than 5% hemolysis up to 512 µg/mL) [µg/mL] |
| --- | --- | --- | --- | --- | --- | --- | --- | --- | --- | --- | --- | --- | --- |
| 8 (≈ 4.71 µM) | 32 (≈ 18.9 µM) | 32 (≈ 18.9 µM) | 64 (≈ 37.7 µM) | 32 (≈ 18.9 µM) | 32 (≈ 18.9 µM) | 32 (≈ 18.9 µM) | 4 (≈ 2.36 µM) | 16 (≈ 9.43 µM) | 8 (≈ 4.71 µM) | CCCCCCCC(=O)NCCCC[C@H](NC(=O)[C@@H](NC(=O)[C@H](CCCNC(=N)N)NC(=O)[C@H](CCC(N)=O)NC(=O)[C@@H](NC(=O)[C@@H](NC(=O)[C@H](CCCNC(=N)N)NC(=O)[C@@H](N)CCCCN)[C@@H](C)CC)C(C)C)[C@@H](C)CC)C(=O)N[C@@H](CC(=O)O)C(=O)N[C@@H](Cc1ccccc1)C(=O)N[C@@H](CC(C)C)C(=O)N[C@@H](CCCNC(=N)N)C(N)=O [VIII, [Lys^ε(C8)]^8KR12-NH2] (H-KRIVQRIK(Octanoyl)DFLR-NH2) |  |  | 64 |
| 4 (≈ 2.36 µM) | 64 (≈ 37.7 µM) | 32 (≈ 18.9 µM) | 64 (≈ 37.7 µM) | 64 (≈ 37.7 µM) | 32 (≈ 18.9 µM) | 64 (≈ 37.7 µM) | 8 (≈ 4.71 µM) | 32 (≈ 18.9 µM) | 32 (≈ 18.9 µM) | CCCCCCCC(=O)NCCCC[C@H](N)C(=O)N[C@@H](CCCNC(=N)N)C(=O)N[C@H](C(=O)N[C@H](C(=O)N[C@@H](CCC(N)=O)C(=O)N[C@@H](CCCNC(=N)N)C(=O)N[C@H](C(=O)N[C@@H](CCCCN)C(=O)N[C@@H](CC(=O)O)C(=O)N[C@@H](Cc1ccccc1)C(=O)N[C@@H](CC(C)C)C(=O)N[C@@H](CCCNC(=N)N)C(N)=O)[C@@H](C)CC)C(C)C)[C@@H](C)CC [III, C8^ε-KR12-NH2] (H-K(Octanoyl)RIVQRIKDFLR-NH2) |  |  |  |
| 4 (≈ 2.19 µM) | 64 (≈ 35.1 µM) | 32 (≈ 17.5 µM) | 32 (≈ 17.5 µM) | 32 (≈ 17.5 µM) | 64 (≈ 35.1 µM) | 32 (≈ 17.5 µM) | 64 (≈ 35.1 µM) | 32 (≈ 17.5 µM) | 16 (≈ 8.77 µM) | CCCCCCCC(=O)NCCCC[C@H](NC(=O)[C@H](CCCNC(=N)N)NC(=O)[C@H](CC(C)C)NC(=O)[C@H](Cc1ccccc1)NC(=O)[C@H](CC(=O)O)NC(=O)[C@H](CCCCN)NC(=O)[C@@H](NC(=O)[C@H](CCCNC(=N)N)NC(=O)[C@H](CCC(N)=O)NC(=O)[C@@H](NC(=O)[C@@H](NC(=O)[C@H](CCCNC(=N)N)NC(=O)[C@@H](N)CCCCN)[C@@H](C)CC)C(C)C)[C@@H](C)CC)C(N)=O [VI, KR12-Lys^ε(C8)-NH2] (H-KRIVQRIKDFLRK(Octanoyl)-NH2) |  |  |  |
| 16 (≈ 9.59 µM) | 64 (≈ 38.3 µM) | 128 (≈ 76.7 µM) | 64 (≈ 38.3 µM) | 512 (≈ 307 µM) | 128 (≈ 76.7 µM) | 512 (≈ 307 µM) | 64 (≈ 38.3 µM) | 512 (≈ 307 µM) | 32 (≈ 19.2 µM) | CCCCCCCC(=O)NCCCC[C@H](NC(=O)[C@H](CC(C)C)NC(=O)[C@H](Cc1ccccc1)NC(=O)[C@H](CC(=O)O)NC(=O)[C@H](CCCCN)NC(=O)[C@@H](NC(=O)[C@H](CCCNC(=N)N)NC(=O)[C@H](CCC(N)=O)NC(=O)[C@@H](NC(=O)[C@@H](NC(=O)[C@H](CCCNC(=N)N)NC(=O)[C@@H](N)CCCCN)[C@@H](C)CC)C(C)C)[C@@H](C)CC)C(N)=O [VII, [Lys^ε(C8)]^12KR12-NH2] (H-KRIVQRIKDFLK(Octanoyl)-NH2) |  |  |  |
